Results on 50 compounds are retold here after patent publication US8507472B2 (priority 2010, dated 2013).

Broadly, the chromatographic logP is lipophilicity estimated from chromatographic retention. A lower chromatographic logP goes with lower lipophilicity.

The first data set relates to Pyrenophora teres. As to the kind of experiment: Pyrenophora teres test (barley)/protective. The data set is classed as in vivo. The following applies: in vivo. The protocol:
Solvent: 49 parts by weight of N,N-dimethylformamide
Emulsifier: 1 part by weight of alkylaryl polyglycol ether
To produce a suitable preparation of active compounds, 1 part by weight of active compound is mixed with the stated amounts of solvent and emulsifier, and the concentrate is diluted with water to the desired concentration.
To test for protective activity, young barley plants are sprayed with the active compound preparation at the stated application rate. 1 day after the treatment, the plants are inoculated with an aqueous spore suspension of Pyrenophora teres and then remain at 100% rel. atmospheric humidity and 22° C. for 48 h. The plants are then placed in a greenhouse at 80% rel. atmospheric humidity and a temperature of 20° C.
Evaluation is carried out 7-9 days after the inoculation. 0% means an efficacy which corresponds to that of the control, whereas an efficacy of 100% means that no infection is observed.
Take `CC(C)CC(=O)Nc1cc(-c2c(-c3ccc(F)cc3)nn3c2CCOC3(C)C)ccn1` [Example 105]: the efficacy in % amounted to 95%.
Take `Nc1cc(-c2c(-c3ccc(F)cc3)nn3c2CCOC3)ccn1` [Example 103]: the efficacy in % is given as 90%.
The same measure, in the same setting: the result for `CC(C)CNc1cc(-c2c(-c3cccc(F)c3)nn3c2CCC3)ccn1` [Example 73] reads 70%; that for `CC(C)CNc1cc(-c2c(-c3ccccc3)nn3c2CCC3)ccn1` [Example 72], 80%.

Test system in the next data set: not listed separately
In words: log P determination by HPLC retention times (alkan-2-one calibration). The following applies: HCOOH; preparation examples in the text.
As to `CC(Cl)CCC(=O)NN=C(c1ccccc1)c1ccccc1` (centres unmarked) [XXV-1, 4-Chloro-N′-(diphenylmethylene)pentane hydrazide], the “log P(HCOOH)” value was 3.76.

Still in this data set, the particulars now being: log P(HCOOH), HCOOH; preparation examples in the text.
On to `Fc1ccc(-c2nn3c(c2I)CCCCC3)cc1` [VIII-2, 2-(4-Fluorophenyl)-3-iodo-5,6,7,8-tetrahydro-4H-pyrazolo[1,5-a]azepine], for which the chromatographic logP stood at 4.35.
Still for that read-out and setting: the result for `CC1CCc2c(C(=O)O)c(-c3ccccc3F)nn21` (centres unmarked) [XXXI-3, 2-(2-Fluorophenyl)-6-methyl-5,6-dihydro-4H-pyrrolo[1,2-b]pyrazole-3-carboxylic acid] reads 1.64; that for `CCOC(=O)CC(=NN1CCCC1=O)c1ccccc1F` [XXVIII-4, Ethyl 3-(2-fluorophenyl)-3-[(2-oxopyrrolidin-1-yl)imino]propanoate], 1.97.
Turning to `FC(F)(F)c1ccc(-c2cc3n(n2)CCC3)cc1` [VII-9, 2-[4-(Trifluoromethyl)phenyl]-5,6-dihydro-4H-pyrrolo[1,2-b]pyrazole], the chromatographic logP worked out at 3.2.
Same read-out and setting: the same measure for `Fc1ccccc1-c1nn2c(c1Br)CCC2` [VIII-22, 3-Bromo-2-(2-fluorophenyl)-5,6-dihydro-4H-pyrrolo[1,2-b]pyrazole]: 2.81; for `COC(=O)c1cc(-c2ccc(F)cc2)nn1CCCl` [XI-1, Methyl 1-(2-chloroethyl)-3-(4-fluorophenyl)-1H-pyrazole-5-carboxylate]: 3.58; for `Ic1c(-c2ccsc2)nn2c1CCCC2` [VIII-14, 2-(3-Thienyl)-3-iodo-4,5,6,7-tetrahydropyrazolo[1,5-a]pyridine]: 3.4.
Take `FC(F)(F)c1ccc(-c2nn3c(c2I)CCC3)cc1` [VIII-10, 2-[4-(Trifluoromethyl)phenyl]-3-iodo-5,6-dihydro-4H-pyrrolo[1,2-b]pyrazole]: the chromatographic logP came to 4.13.
Still for that read-out and setting: the result for `CC(CCC(=O)NN=C(c1ccccc1)c1ccccc1)OS(C)(=O)=O` (centres unmarked) [5-[2-(diphenylmethylene)hydrazino]-5-oxopentan-2-yl methanesulphonate] reads 2.82; that for `O=C(O)c1c(-c2ccccc2F)nn2c1CCC2` [XXXI-4, 2-(2-Fluorophenyl)-5,6-dihydro-4H-pyrrolo[1,2-b]pyrazole-3-carboxylic acid], 1.35.
Turning to `FC(F)(F)c1cccc(-c2cc3n(n2)CCC3)c1` [VII-6, 2-[3-(Trifluoromethyl)phenyl]-5,6-dihydro-4H-pyrrolo[1,2-b]pyrazole], the chromatographic logP was found to be 3.25.
The compound `Cc1ccc(-c2cc3n(n2)CCC3)cc1` [VII-8, 2-[4-Methylphenyl]-5,6-dihydro-4H-pyrrolo[1,2-b]pyrazole] came in with a chromatographic logP of 2.64.
Turning to `Clc1ccc(-c2cc3n(n2)CCC3)cc1` [VII-4, 2-(4-Chlorophenyl)-5,6-dihydro-4H-pyrrolo[1,2-b]pyrazole], the chromatographic logP worked out at 2.86.
Same read-out and setting: the same measure for `CC1CCn2nc(-c3ccc(F)cc3)c(I)c21` (centres unmarked) [VIII-21, 2-(4-Fluorophenyl)-3-iodo-4-methyl-5,6-dihydro-4H-pyrrolo[1,2-b]pyrazole]: 3.67.
In the case of `Ic1c(-c2ccccc2)nn2c1CCCC2` [VIII-12, 2-(Phenyl)-3-iodo-4,5,6,7-tetrahydropyrazolo[1,5-a]pyridine], the chromatographic logP was found to be 3.55.
In turn, `Fc1cccc(-c2cc3n(n2)CCC3)c1` [VII-10, 2-[3-Fluorophenyl]-5,6-dihydro-4H-pyrrolo[1,2-b]pyrazole] returned a chromatographic logP of 2.46.
On the same count and under the same terms, the result for `ClCc1cc(-c2ccccc2)n[nH]1` [XV-1, 5-(Chloromethyl)-3-phenyl-1H-pyrazole] reads 2.05.
Still for that read-out and setting: the same measure for `[O-]c1on[n+]2c1CCCCC2` [III-1, 5,6,7,8-Tetrahydro-4H-[1,2,3]oxadiazolo[3,4-a]azepin-9-ium 3-olate]: 0.6; for `FC(F)(F)c1ccc(C#Cc2ccncc2)cc1` [II-1, 4-{[4-(Trifluoromethyl)phenyl]ethynyl}pyridine]: 2.86; for `Fc1ccc(-c2nn3c(c2I)CCCC3)cc1` [VIII-1, 2-(4-Fluorophenyl)-3-iodo-4,5,6,7-tetrahydropyrazolo[1,5-a]pyridine]: 3.79.
Turning to `CCOC(=O)c1c(-c2ccccc2F)nn2c1CCC2` [XXX-3, Ethyl 2-(2-fluorophenyl)-5,6-dihydro-4H-pyrrolo[1,2-b]pyrazole-3-carboxylate], the chromatographic logP was 2.49.
Still for that read-out and setting: the same measure for `COC(=O)CC(=NN1C(=O)CCC1C)c1ccc(F)cc1` (centres unmarked) [XXVIII-1, Methyl 3-(4-fluorophenyl)-3-[(2-methyl-5-oxopyrrolidin-1-yl)imino]propanoate]: 2.13; for `Clc1ccc(-c2nn3c(c2I)CCC3)cc1` [VIII-4, 2-(4-Chlorophenyl)-3-iodo-5,6-dihydro-4H-pyrrolo[1,2-b]pyrazole]: 3.88; for `COc1ccc(-c2nn3c(c2I)CCC3)cc1` [VIII-9, 2-[4-(Methoxy)phenyl]-3-iodo-5,6-dihydro-4H-pyrrolo[1,2-b]pyrazole]: 3.01.
Same read-out and setting: the same measure for `Fc1ccc(-c2cc(CCOCc3ccccc3)[nH]n2)cc1` [XXI, 5-[2-(Benzyloxy)ethyl]-3-(4-fluorophenyl)-1H-pyrazole]: 3.09; for `CC(C)(C)OC1Cc2c([O-])on[n+]2C1` (centres unmarked) [III-4, 5-tert-Butoxy-5,6-dihydro-4H-pyrrolo[1,2-c][1,2,3]oxadiazol-7-ium 3-olate]: 1.34; for `CC1CCc2c(Br)c(-c3ccc(F)cc3)nn21` (centres unmarked) [VIII-20, 2-(4-Fluorophenyl)-3-bromo-6-methyl-5,6-dihydro-4H-pyrrolo[1,2-b]pyrazole]: 3.77.
The same measure, in the same setting: the result for `c1cc(-c2cc3n(n2)CCC3)cs1` [VII-13, 2-[3-Thienyl]-5,6-dihydro-4H-pyrrolo[1,2-b]pyrazole] reads 2.01.
As for `COc1ccc(-c2cc3n(n2)CCC3)cc1` [VII-7, 2-[4-(Methoxy)phenyl]-5,6-dihydro-4H-pyrrolo[1,2-b]pyrazole], the chromatographic logP was determined as 2.17.
As to `Ic1c(-c2ccsc2)nn2c1CCC2` [VIII-8, 2-[3-Thienyl]-3-iodo-5,6-dihydro-4H-pyrrolo[1,2-b]pyrazole], the chromatographic logP amounted to 2.97.
In turn, `CC1CCC(=O)N1N=C(c1ccccc1)c1ccccc1` (centres unmarked) [XXVI-1, 1-[(Diphenylmethylene)amino]-5-methylpyrrolidin-2-one] showed a chromatographic logP of 2.73.
Still for that read-out and setting: the same measure for `[O-]c1on[n+]2c1CCCC2` [III-2, 4,5,6,7-Tetrahydro[1,2,3]oxadiazolo[3,4-a]pyridin-8-ium 3-olate]: 0.59.
Same read-out and setting: the result for `Fc1ccc(-c2nn3c(c2Br)COCC3)cc1` [VIII-17, 3-Bromo-2-(4-fluorophenyl)-6,7-dihydro-4H-pyrazolo[5,1-c][1,4]oxazine] reads 2.9.
For the compound `c1cc(-c2cc3n(n2)CCCC3)cs1` [VII-12, 2-(3-Thienyl)-4,5,6,7-tetrahydropyrazolo[1,5-a]pyridine], the chromatographic logP amounted to 2.25.
The compound `Ic1c(-c2ccccc2)nn2c1CCC2` [VIII-5, 2-(Phenyl)-3-iodo-5,6-dihydro-4H-pyrrolo[1,2-b]pyrazole] came in with a chromatographic logP of 3.09.
In turn, `Ic1c(-c2ccccc2)nn2c1COCC2` [VIII-15, 3-Iodo-2-phenyl-6,7-dihydro-4H-pyrazolo[5,1-c][1,4]oxazine] gave a chromatographic logP of 2.82.
Regarding `Fc1ccc(-c2nn3c(c2I)CCC3)cc1` [VIII-6, 2-(4-Fluorophenyl)-3-iodo-5,6-dihydro-4H-pyrrolo[1,2-b]pyrazole], the chromatographic logP came to 3.3.
On the same count and under the same terms, the same measure for `CCOC(=O)CC(=NN1C(=O)CCC1C)c1ccccc1F` (centres unmarked) [XXVIII-3, Ethyl 3-(2-fluorophenyl)-3-[(2-methyl-5-oxopyrrolidin-1-yl)imino]propanoate]: 2.34; for `COC(=O)CC(=NN1CCC(C)C1=O)c1ccc(F)cc1` (centres unmarked): 2.09; for `c1ccc(-c2cc3n(n2)CCCC3)cc1` [VII-5, 2-(Phenyl)-4,5,6,7-tetrahydropyrazolo[1,5-a]pyridine]: 2.57.
The same measure, in the same setting: the same measure for `Cc1ccc(-c2nn3c(c2I)CCC3)cc1` [VIII-7, 2-[4-Methylphenyl]-3-iodo-5,6-dihydro-4H-pyrrolo[1,2-b]pyrazole]: 3.54.
Compound `COC(=O)c1c(-c2ccc(F)cc2)nn2c1CCC2C` (centres unmarked) [XXX-1, Methyl 2-(4-fluorophenyl)-6-methyl-5,6-dihydro-4H-pyrrolo[1,2-b]pyrazole-3-carboxylate] displayed a chromatographic logP of 2.84.
Still for that read-out and setting: the same measure for `Fc1ccc(-c2nn3c(c2I)CCOC3)cc1` [VIIIa-1, 2-(4-Fluorophenyl)-3-iodo-4,5-dihydropyrazolo[1,5-c][1,3]oxazine]: 3.23; for `Ic1c(-c2cccs2)nn2c1CCCC2` [VIII-13, 2-(2-Thienyl)-3-iodo-4,5,6,7-tetrahydropyrazolo[1,5-a]pyridine]: 3.45.

The same data set, now with this note: pH 7, log P(pH7), pH7; preparation examples in the text.
`COc1ccc(C#Cc2ccncc2)cc1` [II-3, 4-{[4-(Methoxy)phenyl]ethynyl}pyridine] came in with a chromatographic logP of 2.68.
